Experimental data reported in patent publication US6346603B1, “Crystal of depsipeptide derivative and process for producing the same” (Fujisawa Pharmaceutical Co., Ltd., priority 1997, dated 2002).

What was measured:
Format in all cases: physicochemical
[1] = Water content after standing at ambient temperature to constant weight; conditions: left to stand at ambient temperature until weight reached constant value
Experimental: (§1) The crystals (I), (II) and (III) of the depsipeptide derivative (IV), thus recovered in the aforementioned manners, were examined about the filtration properties during crystallization, the specific volume and water content, by using the prior art crystal (V) for comparison.
As to the water content, additionally, each crystal was left to stand at ambient temperature until its weight reached constant value, wherein an amount of water containing in the crystal was measured in %.

[2] = Filtration properties during crystallization, observed with the naked eye; set-up: key: ⊚: very great filtration properties; ◯: good filtration properties; Δ: poor filtration properties; X: very poor filtration properties; conditions: observation with the naked eye
Experimental: as §1
The filtration properties during crystallization were evaluated on the following standards under observation with the naked eye.
⊚: very great filtration properties
◯: good filtration properties
Δ: poor filtration properties
X: very poor filtration properties

[3] = Fluidity (adhesion properties) of the crystal; conditions: not shown in Table 6; adhesion to machines during production

## CC(C)CC1C(=O)OC(Cc2ccc(N3CCOCC3)cc2)C(=O)N(C)C(CC(C)C)C(=O)OC(C)C(=O)CCCCN1C (stereo not shown) [Crystal (I)]
[1]
  Water content: 3.16%
[2]
  Filtration property during crystallization: ×

## CC(C)CC1C(=O)OC(Cc2ccc(N3CCOCC3)cc2)C(=O)N(C)C(CC(C)C)C(=O)OC(C)C(=O)CCCCN1C (stereo not shown) [Crystal (II)]
[1]
  Water content: 0.98%
[3]
  Fluidity (adhesion properties): great fluidity
[2]
  Filtration property during crystallization: ⊚

## CC(C)CC1C(=O)OC(Cc2ccc(N3CCOCC3)cc2)C(=O)N(C)C(CC(C)C)C(=O)OC(C)C(=O)CCCCN1C (stereo not shown) [Crystal (III)]
[1]
  Water content: 0.20%
[2]
  Filtration property during crystallization: ◯

## CC(C)CC1C(=O)OC(Cc2ccc(N3CCOCC3)cc2)C(=O)N(C)C(CC(C)C)C(=O)OC(C)C(=O)CCCCN1C (stereo not shown) [Prior art Crystal (V), reference compound]
[1]
  Water content: 2.45%
[3]
  Fluidity (adhesion properties): poor fluidity
[2]
  Filtration property during crystallization: ×
